The text below walks through data of patent US20250099431A1, “GLP-1R MODULATING COMPOUNDS” (priority 2020, published 2025).

Series [1] addresses GLP-1R (Homo sapiens (Human), UniProt P43220). Description: GLP-1R activation: cAMP increase in CHO cells stably expressing GLP-1R. Particulars: 10 point dose response, 30 minutes incubation at 37° C. In kind it is cell-based. In a few lines:
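CHO cells stably expressing GLP-1R were incubated 1 h at 37 °C in medium with 1% BSA, then exposed to compound in a 10-point dose response for 30 min at 37 °C. cAMP rise was detected by HTRF (Gs Dynamic kit). EC50 came from a sigmoidal fit of response against log agonist concentration.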

Series [2] can be described thus: Microsomal stability (liver microsomal assay, mixed cofactors); predicted hepatic clearance. In kind it is in vitro ADME. Particulars: liver microsomes 1.0 mg protein/mL (+UDPGA +NADPH), 1 μM analyte, 37° C.; scaled with human liver weight and hepatic blood flow 1.3 L/hr/kg. In a few lines: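 Compound at 1 μM with human or rat pooled liver microsomes, alamethicin-treated, pH 7.4 phosphate, NADPH-regenerating plus UDPGA cofactors, 37° C, sampled 0–70 min. Parent/internal standard ratio by RapidFire QToF MS; half-life from initial log-linear decay, scaled to intrinsic and predicted hepatic clearance and hepatic extraction.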

Read-outs that look alike come from different tables or passages of the source.

Usually EC50 stands for the concentration giving half of the maximal effect.

Sequence of GLP-1R (P43220 24-463): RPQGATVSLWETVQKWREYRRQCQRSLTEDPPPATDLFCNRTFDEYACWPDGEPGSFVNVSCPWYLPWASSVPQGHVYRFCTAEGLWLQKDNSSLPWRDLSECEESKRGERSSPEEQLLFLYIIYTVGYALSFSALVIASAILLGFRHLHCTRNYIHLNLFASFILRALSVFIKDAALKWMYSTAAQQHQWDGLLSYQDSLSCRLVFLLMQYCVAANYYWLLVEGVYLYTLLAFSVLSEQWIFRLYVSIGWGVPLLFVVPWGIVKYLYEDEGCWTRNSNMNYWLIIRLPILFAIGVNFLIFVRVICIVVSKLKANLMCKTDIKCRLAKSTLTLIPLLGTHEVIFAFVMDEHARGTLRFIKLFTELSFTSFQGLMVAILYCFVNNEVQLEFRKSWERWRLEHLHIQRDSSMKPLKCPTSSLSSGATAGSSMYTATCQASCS

`COCCn1c(Cc2c(F)cc(-c3cccc4c3OC(C)(c3ccc(C#N)cc3F)O4)c(F)c2F)nc2ccc(C(=O)O)cc21` (single isomer, unassigned) [Example 97, 2-(4-(2-(4-cyano-2-fluorophenyl)-2-methylbenzo[d][1, 3]dioxol-4-yl)-2,3,6-trifluorobenzyl)-1-(2-methoxyethyl)-1H-benzo[d]imidazole-6-carboxylic acid]: in series [1] (cAMP increase, read-out: EC50), the EC50 is 1.9 nM. The “Predicted Hepatic Clearance (Pred. Cl.)” value in series [2] is 15.2 mL/min/kg.

As to `CC1(c2ccc(Cl)cn2)Oc2cccc(-c3cc(F)c(Cc4nc5ccc(C(=O)O)cc5n4C[C@@H]4CCO4)c(F)c3)c2O1` (stereo partly drawn) [Example 27, 2-(4-(2-(5-chloropyridin-2-yl)-2-methylbenzo[d][1, 3]dioxol-4-yl)-2,6-difluorobenzyl)-1-(((S)-oxetan-2-yl)methyl)-1H-benzo[d]imidazole-6-carboxylic acid], the EC50 in series [1] (cAMP increase, read-out: EC50) worked out at 0.53 nM. In addition, the “Predicted Hepatic Clearance (Pred. Cl.)” value in series [2] was 2.33 mL/min/kg.

With `CC1(c2ccc(Cl)cc2F)Oc2cccc(-c3cc(F)c(Cc4nc5ccc(C(=O)O)cc5n4C[C@@H]4CCO4)c(F)c3)c2O1` (single isomer, unassigned) [Example 48], the EC50 in series [1] (EC50, cAMP increase) came to 1.2 nM. The “Predicted Hepatic Clearance (Pred. Cl.)” value in series [2] was 2 mL/min/kg.

Regarding `COCCn1c(Cc2ccc(-c3cccc4c3OC(c3ccccc3)O4)cc2F)nc2ccc(C(=O)O)cc21` (single isomer, unassigned) [Example 36, 2-(2-fluoro-4-(2-phenylbenzo[d][1, 3]dioxol-4-yl)benzyl)-1-(2-methoxyethyl)-1H-benzo[d]imidazole-6-carboxylic acid], the EC50 in series [1] (cAMP increase, read-out: EC50) was found to be 242 nM. Further, in series [2], the “Predicted Hepatic Clearance (Pred. Cl.)” value was 8.67 mL/min/kg.

For the molecule `O=C(O)c1ccc2nc(Cc3c(F)cc(-c4cccc5c4CN(c4ccc(Cl)cc4F)C5)cc3F)n(C[C@@H]3CCO3)c2c1` [Example 71, (S)-2-(4-(2-(4-chloro-2-fluorophenyl)isoindolin-4-yl)-2,6-difluorobenzyl)-1-(oxetan-2-ylmethyl)-1H-benzo[d]imidazole-6-carboxylic acid], in series [1] (cAMP increase, read-out: EC50), the EC50 amounted to 10000 nM. Also, the “Predicted Hepatic Clearance (Pred. Cl.)” value in series [2] was 3.83 mL/min/kg.

On to `COCCn1c(Cc2ccc(-c3cccc4c3OC(c3ccccc3)C4)cc2F)nc2ccc(C(=O)O)cc21` (stereo not shown) [Example 7, 2-(2-fluoro-4-(2-phenyl-2,3-dihydrobenzofuran-7-yl)benzyl)-1-(2-methoxyethyl)-1H-benzo[d]imidazole-6-carboxylic acid], for which the EC50 in series [1] (cAMP increase, read-out: EC50) amounted to 530 nM. Also, the “Predicted Hepatic Clearance (Pred. Cl.)” value in series [2] is 7.5 mL/min/kg.

Consider `CC1(c2ccc(C#N)cc2F)Oc2cccc(-c3cc(F)c(Cc4nc5ccc(C(=O)O)cc5n4C[C@@H]4CCO4)c(F)c3F)c2O1` (stereo partly drawn) [Example 90, 2-(4-(2-(4-cyano-2-fluorophenyl)-2-methylbenzo[d][1, 3]dioxol-4-yl)-2,3,6-trifluorobenzyl)-1-(((S)-oxetan-2-yl)methyl)-1H-benzo[d]imidazole-6-carboxylic acid], for which, in series [1] (cAMP increase, read-out: EC50), the EC50 stood at 0.23 nM. Further, the “Predicted Hepatic Clearance (Pred. Cl.)” value in series [2] was 4.67 mL/min/kg.

`CC1(c2ccc(Cl)cc2F)Oc2cccc(-c3cc(F)c(Cc4nc5ccc(C(=O)O)cc5n4CCOC(F)F)c(F)c3)c2O1` (stereo not shown) [Example 83, 2-(4-(2-(4-chloro-2-fluorophenyl)-2-methylbenzo[d][1, 3]dioxol-4-yl)-2,6-difluorobenzyl)-1-(2-(difluoromethoxy)ethyl)-1H-benzo[d]imidazole-6-carboxylic acid]: the EC50 in series [1] (cAMP increase, read-out: EC50) was 13 nM. In addition, the “Predicted Hepatic Clearance (Pred. Cl.)” value in series [2] is 3.3 mL/min/kg.

Turning to `CC1(c2ccc(Cl)cc2F)Oc2cccc(-c3ccc(Cc4nc5ccc(C(=O)O)cc5n4Cc4ccon4)c(F)c3)c2O1` (stereo not shown) [Example 107, 2-(4-(2-(4-chloro-2-fluorophenyl)-2-methylbenzo[d][1, 3]dioxol-4-yl)-2-fluorobenzyl)-1-(isoxazol-3-ylmethyl)-3a,7a-dihydro-1H-benzo[d]imidazole-6-carboxylic acid], the EC50 in series [1] (cAMP increase, read-out: EC50) came out at 1.9 nM. The “Predicted Hepatic Clearance (Pred. Cl.)” value in series [2] is 4.33 mL/min/kg.

Regarding `CC1(c2ccc(Cl)cn2)Oc2cccc(-c3cc(F)c(Cc4nc5ccc(C(=O)O)cc5n4C[C@@H]4CCO4)cc3F)c2O1` (single isomer, unassigned) [Example 45], the EC50 in series [1] (cAMP increase, read-out: EC50) was 0.19 nM. The “Predicted Hepatic Clearance (Pred. Cl.)” value in series [2] is 5 mL/min/kg.

As to `COCCn1c(Cc2c(F)cc(-c3cccc4c3OC3(c5ccc(Cl)cc5)CCC(=O)N43)cc2F)nc2ccc(C(=O)O)cc21` (stereo not shown) [Example 17, 2-(4-(3a-(4-chlorophenyl)-1-oxo-1,2,3,3a-tetrahydrobenzo[d]pyrrolo[2,1-b]oxazol-5-yl)-2,6-difluorobenzyl)-1-(2-methoxyethyl)-1H-benzo[d]imidazole-6-carboxylic acid], the EC50 in series [1] (cAMP increase, read-out: EC50) was determined as 10000 nM. Also, in series [2], the “Predicted Hepatic Clearance (Pred. Cl.)” value was 7.33 mL/min/kg.

In the case of `CC1(c2ccc(Cl)cc2F)Oc2cccc(-c3cc(F)c(Cc4nc5ccc(C(=O)O)cc5n4C[C@@H]4CCO4)c(F)c3F)c2O1` (stereo partly drawn) [Example 20, 2-(4-(2-(4-chloro-2-fluorophenyl)-2-methylbenzo[d][1, 3]dioxol-4-yl)-2,3,6-trifluorobenzyl)-1-(((S)-oxetan-2-yl)methyl)-1H-benzo[d]imidazole-6-carboxylic acid], in series [1] (cAMP increase, read-out: EC50), the EC50 amounted to 0.089 nM. Moreover, the “Predicted Hepatic Clearance (Pred. Cl.)” value in series [2] was 2.5 mL/min/kg.

As for `CC1(c2ccc(Cl)cc2F)Oc2cccc(-c3cc(F)c(Cc4nc5ccc(C(=O)O)cc5n4C[C@@H]4CCO4)c(F)c3)c2O1` (single isomer, unassigned) [Example 47], in series [1] (EC50, cAMP increase), a half-maximal response (EC50) required 0.07 nM. In addition, the “Predicted Hepatic Clearance (Pred. Cl.)” value in series [2] was 3.17 mL/min/kg.

As to `COCCn1c(Cc2c(F)cc(-c3cccc4c3OC3(CCCCc5cc(Cl)ccc53)O4)cc2F)nc2ccc(C(=O)O)cc21` (stereo not shown) [Example 57, 2-(4-(2′-chloro-6′,7′,8′,9′-tetrahydrospiro[benzo [d][1,3]dioxole-2,5′-benzo[7]annulen]-4-yl)-2,6-difluorobenzyl)-1-(2-methoxyethyl)-1H-benzo[d]imidazole-6-carboxylic acid], the EC50 in series [1] (cAMP increase, read-out: EC50) came to 347 nM. Also, the “Predicted Hepatic Clearance (Pred. Cl.)” value in series [2] was 9.17 mL/min/kg.

Consider `COCCn1c(Cc2ccc(-c3cccc4c3OC(c3ccc(C#N)cc3F)O4)cc2F)nc2ccc(C(=O)O)cc21` (stereo not shown) [Example 4, 2-(4-(2-(4-cyano-2-fluorophenyl)benzo[d][1, 3]dioxol-4-yl)-2-fluorobenzyl)-1-(2-methoxyethyl)-1H-benzo[d]imidazole-6-carboxylic acid], for which the EC50 in series [1] (cAMP increase, read-out: EC50) was found to be 103 nM. Further, the “Predicted Hepatic Clearance (Pred. Cl.)” value in series [2] was 4.17 mL/min/kg.

Consider `COCCn1c(Cc2c(F)cc(-c3cccc4c3OC(C)(c3ccc(C#N)s3)O4)cc2F)nc2ccc(C(=O)O)cc21` (stereo not shown) [Example 11, 2-(4-(2-(5-cyanothiophen-2-yl)-2-methylbenzo[d][1, 3]dioxol-4-yl)-2,6-difluorobenzyl)-1-(2-methoxyethyl)-1H-benzo[d]imidazole-6-carboxylic acid], for which the EC50 in series [1] (cAMP increase, read-out: EC50) came out at 34 nM. Besides, the “Predicted Hepatic Clearance (Pred. Cl.)” value in series [2] was 7.17 mL/min/kg.

Consider `COCCn1c(Cc2c(F)cc(-c3cccc4c3OC(C)(c3ccc(C#N)cn3)O4)cc2F)nc2ccc(C(=O)O)cc21` (stereo not shown) [Example 66, 2-(4-(2-(5-cyanopyridin-2-yl)-2-methylbenzo[d][1, 3]dioxol-4-yl)-2,6-difluorobenzyl)-1-(2-methoxyethyl)-1H-benzo[d]imidazole-6-carboxylic acid], for which the EC50 in series [1] (cAMP increase, read-out: EC50) came out at 21 nM. Moreover, the “Predicted Hepatic Clearance (Pred. Cl.)” value in series [2] is 7.17 mL/min/kg.
